{"source": "a melting point compilation (Tetko et al.)"}
{"units": {"melting point": "°C"}}
{"smiles": "Cc1cc(=O)c(C(=O)O)nn1-c1ccccc1Cl", "melting point": "215 to 217"}
{"smiles": "O=C(O)c1cccn1Cc1ccccc1", "melting point": "124 to 126"}
{"smiles": "Fc1ccc(COc2cccc(N3CCNCC3)c2)cc1", "melting point": "84 to 86"}
{"smiles": "OCc1ncc(-c2cccc(Cl)c2)o1", "melting point": "101 to 103"}
{"smiles": "CC(C)(C)C1(C)OC(=O)CC(=O)O1", "melting point": "72 to 74"}
{"smiles": "NC(=S)CC(N)=S", "melting point": "202 to 204"}
{"smiles": "COc1cc(NC(C)=O)ccc1I", "melting point": "138 to 140"}
{"smiles": "CSc1ccc(C)c(C(=O)O)c1", "melting point": "128 to 130"}
{"smiles": "NNc1nc(Cl)c(Cl)cc1Cl", "melting point": "161 to 163"}
{"smiles": "COc1ccccc1CC(N)=O", "melting point": "127 to 129"}
{"smiles": "CC(=O)N1CCN(c2cc(C#N)ccn2)CC1", "melting point": "107 to 109"}
{"smiles": "OC1CCCCC1c1ccc(F)cc1", "note": "(stereo not drawn)", "melting point": "71 to 73"}
{"smiles": "COc1ccc(N2C(=O)C=CC2=O)c(OC)c1", "melting point": "125 to 127"}
{"smiles": "O=CN1CCc2cc(C(=O)CCl)ccc21", "melting point": "146 to 148"}
{"smiles": "Nc1nc(-c2ccccn2)cs1", "melting point": "135 to 137"}
{"smiles": "Nc1nc(-c2ccccc2OC(F)F)n[nH]1", "melting point": "188 to 190"}
{"smiles": "O=C1C=CC(=O)N1CCc1ccccc1F", "melting point": "106 to 108"}
{"smiles": "C=CCNC(=O)CN1CCNCC1", "melting point": "63 to 65"}
{"smiles": "O=C(CCl)NCc1ccccc1[N+](=O)[O-]", "melting point": "93 to 95"}
{"smiles": "CC(=O)c1cc(Br)c(F)cc1O", "melting point": "77 to 79"}
{"smiles": "CC(C)NC(=O)CN1CCCNCC1", "melting point": "43 to 45"}
{"smiles": "Sc1ncnc2ccccc12", "melting point": "293 to 295"}
{"smiles": "CN(C)c1cccc(C(=O)NN)c1", "melting point": "99 to 101"}
{"smiles": "Cc1ncsc1-c1nc(CCl)no1", "melting point": "82 to 84"}
{"smiles": "COC(=O)CNc1ncc(C)cc1[N+](=O)[O-]", "melting point": "107 to 109"}
{"smiles": "COC(=O)C(Cl)c1cccc(C#N)c1", "note": "(stereo not drawn)", "melting point": "49 to 51"}
{"smiles": "CCc1ccccc1-n1c(S)nc2ccccc2c1=O", "melting point": "304 to 306"}
{"smiles": "COc1cc(C)nc(CO)c1", "melting point": "69 to 71"}
{"smiles": "Clc1cncc(N2CCCC2)n1", "melting point": "53 to 55"}
{"smiles": "O=C(O)C1CCCCS1(=O)=O", "note": "(stereo not drawn)", "melting point": "166 to 168"}
{"smiles": "CCNC(=O)c1ccc(O)cc1", "melting point": "109 to 111"}
{"smiles": "Cc1cccc2[nH]c(CC#N)nc12", "melting point": "158 to 160"}
{"smiles": "CCOC(=O)c1sc2nc(CN(C)C)nc(Cl)c2c1C", "melting point": "114 to 116"}
{"smiles": "Cc1nn(C)c(C)c1-c1cc(C(=O)O)[nH]n1", "melting point": "281 to 283"}
{"smiles": "Cn1cc(C#N)cc1C(=O)O", "melting point": "239 to 241"}
{"smiles": "CCCOc1ccc(OCC(=O)O)cc1", "melting point": "106 to 108"}
{"smiles": "CC(=O)c1c[nH]c2cc(Cl)ccc12", "melting point": "229 to 231"}
{"smiles": "Cc1cc(S(N)(=O)=O)c(C)s1", "melting point": "139 to 141"}
{"smiles": "O=C1CCCc2nc(-c3ccccc3)sc21", "melting point": "119 to 121"}
{"smiles": "NC(=O)NCc1cccc(F)c1", "melting point": "134 to 136"}
{"smiles": "Cc1c(F)ccc2c1NC(=O)C2=O", "melting point": "139 to 141"}
{"smiles": "Cn1ncc2ccc(C#N)cc21", "melting point": "104 to 106"}
{"smiles": "CCn1ncc2ccc(N)cc21", "melting point": "117 to 119"}
{"smiles": "Nc1ccc2oc(-c3cc(F)ccc3Br)nc2c1", "melting point": "159 to 161"}
{"smiles": "CN1CCc2nc(N)sc2C1", "melting point": "168 to 170"}
{"smiles": "COc1ccc(Br)cc1C1NC(=O)NC1=O", "note": "(stereo not drawn)", "melting point": "209 to 211"}
{"smiles": "CCCCCCCCCCCC(=O)c1ccc(O)cc1", "melting point": "71 to 73"}
{"smiles": "C#CCn1c2ccccc2c2ccccc21", "melting point": "103 to 105"}
{"smiles": "O=C(O)c1ccc(Cl)cc1NS(=O)(=O)c1ccccc1", "melting point": "189 to 191"}
{"smiles": "CC(C)Cn1cnc2c1c(=O)[nH]c(=O)n2Cc1ccccc1", "melting point": "179 to 181"}
{"smiles": "O=C(O)c1cccc(NC(=O)C2Cc3ccccc3O2)c1", "note": "(stereo not drawn)", "melting point": "252 to 254"}
{"smiles": "Cc1ccccc1CC(N)=NO", "melting point": "121 to 123"}
{"smiles": "Brc1cncc(-c2ncc[nH]2)c1", "melting point": "189 to 191"}
{"smiles": "CCOC(=O)c1oc2c(Cl)cccc2c1C", "melting point": "63 to 65"}
{"smiles": "NC(=O)CNC(=O)c1ccc(N)cc1", "melting point": "216 to 218"}
{"smiles": "CC1=NC2(CCCC2)C(=O)N1", "melting point": "66 to 68"}
{"smiles": "CC(=O)c1c[nH]cc1-c1ccccc1", "melting point": "156 to 158"}
{"smiles": "O=C(O)c1ccc(N2C(=O)CSC2=S)cc1", "melting point": "281 to 283"}
{"smiles": "CC(C)(C)OC(=O)c1nnsc1N", "melting point": "134 to 136"}
{"smiles": "Cn1cc(Br)cc1C(=O)O", "melting point": "129 to 131"}
{"smiles": "Nc1c(-c2ccncc2)nc2ccccn12", "melting point": "211 to 213"}
{"smiles": "ClCc1ccc(-c2nc3cccc(Cl)c3s2)cc1", "melting point": "173 to 175"}
{"smiles": "NC(=O)c1ccc2[nH]cc(C3CCNCC3)c2c1", "melting point": "149 to 151"}
{"smiles": "CC(C)(C)OC(=O)Nc1cccc(C#N)c1", "melting point": "127 to 129"}
{"smiles": "O=C(O)Cn1cncn1", "melting point": "199 to 201"}
{"smiles": "O=C1Cc2ccc(Br)cc2N1", "melting point": "216 to 220"}
{"smiles": "O=C(O)c1cc(S(=O)(=O)Cl)cc(Cl)c1F", "melting point": "169 to 171"}
{"smiles": "CN(C(=O)CCl)C(C)(C)C#N", "melting point": "55 to 57"}
{"smiles": "CCOc1cc(C=O)ccc1OCC(F)(F)F", "melting point": "38 to 40"}
{"smiles": "NC(=NO)c1cccc(F)c1", "melting point": "73 to 75"}
{"smiles": "CC(O)c1ccc(N(C)Cc2ccccn2)c(F)c1", "note": "(stereo not drawn)", "melting point": "73 to 75"}
{"smiles": "CC(C)n1ncc(C(N)=O)c1N", "melting point": "194 to 196"}
{"smiles": "NC(=O)C1CCCCS1", "note": "(stereo not drawn)", "melting point": "164 to 166"}
